# Measurements as given in patent US20220331310A1, “METHODS FOR ALLEVIATING PTERYGIUM-ASSOCIATED WORRY ABOUT EYE APPEARANCE” (Cloudbreak Therapeutics, LLC, priority 2019, published 2022).
# Test system: Patients with Primary or Recurrent Pterygium
# Assay: Phase 2a vehicle-controlled study of nintedanib ophthalmic solution; patient questionnaire on symptoms and life impacts (1-5 scale)
# Assay type: in vivo, human
# Conditions: 0.2% nintedanib ophthalmic solution, topical ocular, TID for 28 days, versus vehicle
# Description: A Phase 2a Multicenter, Randomized, Vehicle-Controlled, Dose Escalating Study to Evaluate the Safety, Efficacy and Pharmacokinetics of Nintedanib Ophthalmic Solution in Patients with Primary or Recurrent Pterygium
# Objectives of the study were to evaluate ocular and systemic safety of nintedanib and its efficacy in reducing pterygium vascularity in primary or recurrent patients. Several other secondary endpoints were also assessed, including the assessment of symptoms and life impacts by using a questionnaire based on a numerical 1-5 scale. The double-masked, vehicle-controlled, parallel study was conducted with 28 days TID repeat ocular dosing of vehicle and 0.2% nintedanib.
# The disclosure focused on the relevant questionnaire endpoint that included 15 questions regarding the ocular symptoms, vision related functioning and the impact on life quality in patients. The questionnaire was derived from the validated Visual Functioning Questionnaire-25 (VFQ-25) (National Eye Institute, 2000) and the validated Ocular Surface Disease Index (OSDI) questionnaire (Schiffman R M, Christianson M D, Jacobsen G, Hirsch J D, Reis B L. Reliability and validity of the Ocular Surface Disease Index. Arch Ophthalmol. 2000; 118 (5): 615-621.). The patients were asked to rate severity using a 5-point scale, with 5 being the most severe.
smiles,measurement,setting,value
COC(=O)c1ccc2c(c1)NC(=O)/C2=C(\Nc1ccc(N(C)C(=O)CN2CCN(C)CC2)cc1)c1ccccc1 [nintedanib],"frequency of worry about eye appearance (question ""Worry about eye appearance?"", change of questionnaire score)","5-point scale, 5 most severe, FIG. 1",significantly better improvements than the vehicle group
same,questionnaire questions showing a significant difference between drug and vehicle,15-question questionnaire derived from VFQ-25 and OSDI,only one out of fifteen questions showed a significant difference
